This is an account of results in patent publication US20260092061A1, “COMPOUNDS FOR TARGETED PROTEIN DEGRADATION” (Amphista Therapeutics Limited, priority 2022, published 2026).

The structures appear in SMILES notation. Where two headings read alike, the source gives them in different places.

This experiment has as its target T1, BRD9 (Homo sapiens, UniProt Q9H8M2).
T1 sequence (Q9H8M2 1-597): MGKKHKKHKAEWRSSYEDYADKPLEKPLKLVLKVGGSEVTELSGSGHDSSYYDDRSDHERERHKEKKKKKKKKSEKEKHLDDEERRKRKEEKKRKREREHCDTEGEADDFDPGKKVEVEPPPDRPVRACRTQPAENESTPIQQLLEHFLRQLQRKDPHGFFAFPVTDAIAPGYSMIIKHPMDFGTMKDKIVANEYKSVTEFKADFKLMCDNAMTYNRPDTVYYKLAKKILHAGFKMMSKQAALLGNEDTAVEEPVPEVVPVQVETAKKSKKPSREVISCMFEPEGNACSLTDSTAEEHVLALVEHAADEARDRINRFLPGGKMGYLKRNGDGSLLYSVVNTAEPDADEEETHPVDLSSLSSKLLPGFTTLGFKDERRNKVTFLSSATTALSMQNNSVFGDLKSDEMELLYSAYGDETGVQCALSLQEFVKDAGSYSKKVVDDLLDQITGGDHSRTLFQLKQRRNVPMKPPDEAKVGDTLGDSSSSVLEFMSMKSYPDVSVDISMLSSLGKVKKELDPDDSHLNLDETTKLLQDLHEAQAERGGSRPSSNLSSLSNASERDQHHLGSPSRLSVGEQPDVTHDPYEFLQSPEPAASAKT
The experiment is described as follows: Degradation of BRD9 (IF), immunofluorescence in MV4-11 cells, 24 hours (Assay Protocol 2). Particulars: BRD9 degradation. Also on record: A suspension of MV4-11 cells (ATCC CRL-9591) was prepared; host or cells: MV4-11. The experiment is classed as cell-based. As for the experimental part: Assay Protocol 2—Degradation of BRD9 (IF)
A suspension of MV4-11 cells (ATCC CRL-9591) was prepared in phenol red-free assay media (IMDM Thermo Scientific 21056023+10% FBS ATCC 302025) and cells were seeded at 20,000 cells per well (45 μL) in sterile black poly-d-lysine coated 384 well plates (Greiner 781948). Compounds were prepared at 1000× final concentration in DMSO, diluted 1:100 in assay media, and 5 μL compound was added to each well of the cell plate. Cells were incubated for 24 hours at 37° C. with 5% CO2. All the following incubations for immunofluorescence staining were at room temperature. 15 μL of 16% PFA was added to each well (3.7% final concentration) and the cells were fixed for 15 min then washed twice with DPBS. Cells were permeabilised with 0.1% Triton X-100 for 10 min, Triton X-100 was removed, then blocked with 1% BSA in DPBS for 1 hour. Cells were stained with 25 μL anti-BRD9 E4Q3F antibody (CST 48306) diluted 1:25600 in 1% BSA in DPBS for 2-3 hours. Wels were washed twice with DPBS then incubated with 25 μL of 1% BSA containing a 1:1000 dilution of Anti-rabbit Alexa Fluor™ 647 secondary antibody (Thero Scientific A21244) and 1 μg/mL Hoechst nuclear counter stain (Abcam ab228551) for 1 hour. Wells were washed twice with DPBS prior to imaging on a Perkin Elmer Operetta CLS with 10× air lens. Images were processed using Harmony High-Content Imaging and Analysis Software (Perkin Elmer) and the mean contrast ratio of Alexa Fluor™ 647 in central nuclei was used to quantify BRD9 protein levels. Data was further analysed using Dotmatics software and % BRD9 remaining was calculated by normalisation to average data from high and low control wells (cells treated with DMSO or 100 nM CFT-8634 respectively).

The mark [1] stands for this setting: Assay protocol 2, read-out: DC50.
Setting [2] is: MV4-11, Assay protocol 2, read-out: Dmax.

Take `COc1cc(-c2cn(C)c(=O)c(C)c2C)cc(OC)c1CN1C2CC1CN(C(=O)/C(C#N)=C/c1cc(C)on1)C2` (mixture of isomers) [BRD9y, (E/Z)-2-(6-(2,6-dimethoxy-4-(1,4,5-trimethyl-6-oxo-1,6-dihydropyridin-3-yl)benzyl)-3,6-diazabicyclo[3.1.1]heptane-3-carbonyl)-3-(5-methylisoxazol-3-yl)acrylonitrile]: the Dmax – broadly, the greatest extent of degradation seen – (MV4-11, Table 4, determined according to Assay Protocol 2, read-out: Dmax^2) fell in the range of 30 to 50%. Also, the DC50 (in general, the concentration giving 50% degradation) (Table 4, determined according to Assay Protocol 2, read-out: DC50^2) was under 25 nM.

For `COc1cc(-c2cn(C)c(=O)c(C)c2C)cc(OC)c1CN1CCN(Cc2cccc3c2CCN(C(=O)/C(C#N)=C/C(C)(C)C)C3C)CC12CC2` (mixture of isomers) [Compound B103, (E/Z)-2-(5-((4-(2,6-dimethoxy-4-(1,4,5-trimethyl-6-oxo-1,6-dihydropyridin-3-yl)benzyl)-4,7-diazaspiro[2.5]octan-7-yl)methyl)-1-methyl-1,2,3,4-tetrahydroisoquinoline-2-carbonyl)-4,4-dimethylpent-2-enenitrile], the DC50 under setting [1] was 1.25 to 10 nM. Under setting [2], the greatest degradation seen (Dmax) was over 75%.

As to `COc1cc(-c2cn(C)c(=O)c(C)c2C)cc(OC)c1CN1CCN(Cc2cccc3c2CCN(C(=O)/C(C#N)=C/c2cccc(Br)n2)C3C)C(C(C)C)C1` (mixture of isomers) [Compound B131, (E/Z)-3-(6-bromopyridin-2-yl)-2-(5-((4-(2,6-dimethoxy-4-(1,4,5-trimethyl-6-oxo-1,6-dihydropyridin-3-yl)benzyl)-2-isopropylpiperazin-1-yl)methyl)-1-methyl-1,2,3,4-tetrahydroisoquinoline-2-carbonyl)acrylonitrile], the DC50 under setting [1] is 1.25 to 10 nM. Also, the greatest degradation seen (Dmax) under setting [2] was over 75%.

With `COc1cc(-c2cn(C)c(=O)c(C)c2C)cc(OC)c1C(=O)N1CCCN(Cc2cccc3c2CCN(C(=O)/C(C#N)=C/C(C)(C)C)C3C)CC1` (mixture of isomers) [Compound B65, (E/Z)-2-(5-((4-(2,6-dimethoxy-4-(1,4,5-trimethyl-6-oxo-1,6-dihydropyridin-3-yl)benzoyl)-1,4-diazepan-1-yl)methyl)-1-methyl-1,2,3,4-tetrahydroisoquinoline-2-carbonyl)-4,4-dimethylpent-2-enenitrile], the DC50 under setting [1] was in the range of 1.25 to 10 nM. Also, under setting [2], the greatest degradation seen (Dmax) was over 75%.

Consider `COc1cc(-c2cn(C)c(=O)c(C)c2C)cc(OC)c1CN1CCN(Cc2cccc3c2CCN(C(=O)/C(C#N)=C/C2(C)CCOCC2)[C@@H]3C)C2(CC2)C1` (single isomer, unassigned) [Compound B193, (E/Z)-2-(5-((7-(2,6-dimethoxy-4-(1,4,5-trimethyl-6-oxo-1,6-dihydropyridin-3-yl)benzyl)-4,7-diazaspiro[2.5]octan-4-yl)methyl)-1-methyl-1,2,3,4-tetrahydroisoquinoline-2-carbonyl)-3-(4-methyltetrahydro-2H-pyran-4-yl)acrylonitrile], for which the DC50 under setting [1] was under 1.25 nM. The Dmax under setting [2] was over 75%.

Turning to `COc1cc(-c2cn(C)c(=O)c(C)c2C)cc(OC)c1CN1CCC(Oc2cccc3c2CCN(C(=O)/C(C#N)=C/C(C)(C)C)C3C)C1` (stereo in doubt) [Compound B134, (E)-2-(5-(((S)-1-(2,6-dimethoxy-4-(1,4,5-trimethyl-6-oxo-1,6-dihydropyridin-3-yl)benzyl)pyrrolidin-3-yl)oxy)-1-methyl-1,2,3,4-tetrahydroisoquinoline-2-carbonyl)-4,4-dimethylpent-2-enenitrile], under setting [1], the DC50 was 25 to 1000 nM. Also, the greatest degradation seen (Dmax) under setting [2] lay within 40 to 70%.

On to `COc1cc(-c2cn(C)c(=O)c(C)c2C)cc(OC)c1CN1CCN(Cc2cccc3c2CCN(C(=O)/C(C#N)=C/C(C)(C)C)[C@H]3C)[C@@H](C)C1` (single isomer, unassigned) [Compound B197], for which the DC50 under setting [1] lay within 25 to 1000 nM. Besides, the maximal degradation (Dmax) under setting [2] was in the range of 40 to 70%.

With `COc1cc(-c2cn(C)c(=O)c(C)c2C)cc(OC)c1CN1CCN(Cc2cccc3c2CCN(C(=O)/C(C#N)=C/C2(C(F)(F)F)CC2)C3C)C2(CC2)C1` (mixture of isomers) [Compound B153, (E/Z)-2-[5-[[7-[[2,6-dimethoxy-4-(1,4,5-trimethyl-6-oxo-3-pyridyl)phenyl]methyl]-4,7-diazaspiro[2.5]octan-4-yl]methyl]-1-methyl-3,4-dihydro-1H-isoquinoline-2-carbonyl]-3-[1-(trifluoromethyl)cyclopropyl]prop-2-enenitrile], the half-maximal degradation concentration (DC50) under setting [1] was under 1.25 nM. Also, under setting [2], the greatest degradation seen (Dmax) was over 75%.

Regarding `COc1cc(-c2cn(C)c(=O)c(C)c2C)cc(OC)c1CN1CCC(Oc2cccc3c2CCN(C(=O)/C(C#N)=C/c2ccc(C(F)(F)F)cn2)C3C)CC1` (mixture of isomers) [Compound B64, (E/Z)-2-(5-((1-(2,6-dimethoxy-4-(1,4,5-trimethyl-6-oxo-1,6-dihydropyridin-3-yl)benzyl)piperidin-4-yl)oxy)-1-methyl-1,2,3,4-tetrahydroisoquinoline-2-carbonyl)-3-(5-(trifluoromethyl)pyridin-2-yl)acrylonitrile], under setting [1], the half-maximal degradation concentration (DC50) is under 1.25 nM. Besides, the Dmax under setting [2] was over 75%.

Turning to `COc1cc(-c2cn(C)c(=O)c(C)c2C)cc(OC)c1CN1CCN(Cc2cccc3c2CCN(C(=O)/C(C#N)=C/C2(C)CCCC2)C3C)C2(CC2)C1` (mixture of isomers) [Compound B145, (E/Z)-2-(5-((7-(2,6-dimethoxy-4-(1,4,5-trimethyl-6-oxo-1,6-dihydropyridin-3-yl)benzyl)-4,7-diazaspiro[2.5]octan-4-yl)methyl)-1-methyl-1,2,3,4-tetrahydroisoquinoline-2-carbonyl)-3-(1-methylcyclopentyl)acrylonitrile], under setting [1], the DC50 is under 1.25 nM. Moreover, the maximal degradation (Dmax) under setting [2] was over 75%.

`COc1cc(-c2cn(C)c(=O)c(C)c2C)cc(OC)c1CN1C[C@H](C)N(Cc2cccc3c2CCN(C(=O)/C(C#N)=C/C(C)(C)C)C3C)C[C@@H]1C` (mixture of isomers) [Compound B121, (E/Z)-2-(5-(((2S,5S)-4-(2,6-dimethoxy-4-(1,4,5-trimethyl-6-oxo-1,6-dihydropyridin-3-yl)benzyl)-2,5-dimethylpiperazin-1-yl)methyl)-1-methyl-1,2,3,4-tetrahydroisoquinoline-2-carbonyl)-4,4-dimethylpent-2-enenitrile]: the DC50 under setting [1] was in the range of 25 to 1000 nM. Under setting [2], the Dmax was 40 to 70%.

In the case of `COc1cc(-c2cn(C)c(=O)c(C)c2C)cc(OC)c1CN1CCC(Cc2cccc3c2CCN(C(=O)/C(C#N)=C/C(C)(C)CF)[C@H]3C)CC1` (single isomer, unassigned) [Compound C60, (E/Z)-2-(5-((1-(2,6dimethoxy-4-(1,4,5-trimethyl-6-oxo-1,6-dihydropyridin-3-yl)benzyl)piperidin-yl)methyl)-1-methyl-1,2,3,4-tetrahydroisoquinoline-2-carbonyl)-5-fluoro-4,4-dimethylpent-2-enenitrile], the half-maximal degradation concentration (DC50) under setting [1] is 1.25 to 10 nM. Besides, under setting [2], the Dmax fell in the range of 70 to 75%.

`COc1cc(-c2cn(C)c(=O)c(C)c2C)cc(OC)c1CN1CCN(Cc2cccc3c2CCN(C(=O)/C(C#N)=C/C(C)(C)C)[C@H]3C(C)C)CC12CC2` (single isomer, unassigned) [Compound C81, (E/Z)-2-(5-((4-(2,6-dimethoxy-4-(1,4,5-trimethyl-6-oxo-1,6-dihydropyridin-3-yl)benzyl)-4,7-diazaspiro[2.5]octan-7-yl)methyl)-1-isopropyl-1,2,3,4-tetrahydroisoquinoline-2-carbonyl)-4,4-dimethylpent-2-enenitrile]: the DC50 under setting [1] was 1.25 to 10 nM. The greatest degradation seen (Dmax) under setting [2] is over 75%.
